This is an account of results in ChEMBL document CHEMBL1144403, “Novel immunomodulator FTY720 is phosphorylated in rats and humans to form a single stereoisomer. Identification, chemical proof, and biological characterization of the biologically active species and its enantiomer” (J Med Chem, 2005).

Structures are written as SMILES. pEC50: −log10 of the molar value.

Broadly, the pEC50 is the negative decadic logarithm of the EC50, by convention in mol/L.

Holding throughout (type): functional, cell-based
Test [1] concerns the target T1, Sphingosine 1-phosphate receptor 4 (Homo sapiens, UniProt O95977).
T1 sequence (O95977 whole entry): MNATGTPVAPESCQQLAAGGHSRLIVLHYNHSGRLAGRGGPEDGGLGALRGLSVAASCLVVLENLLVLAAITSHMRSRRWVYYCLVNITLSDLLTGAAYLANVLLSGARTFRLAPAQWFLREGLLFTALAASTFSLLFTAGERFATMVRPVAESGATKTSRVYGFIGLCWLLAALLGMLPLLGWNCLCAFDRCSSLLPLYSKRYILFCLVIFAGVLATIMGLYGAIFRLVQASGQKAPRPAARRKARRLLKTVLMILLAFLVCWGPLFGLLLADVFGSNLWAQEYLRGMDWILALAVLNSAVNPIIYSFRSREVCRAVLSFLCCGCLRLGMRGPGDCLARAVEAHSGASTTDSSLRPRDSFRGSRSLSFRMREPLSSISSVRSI
In words: Agonism of human S1P-4 receptor expressed in CHO cells, 90-120 min in pH 7.4 using [35S]GTP-gamma-S as radioligand.

Test [2] addresses Sphingosine 1-phosphate receptor 2 (Homo sapiens, UniProt O95136). Briefly: Agonism of human S1P-2 receptor expressed in CHO cells, 90-120 min in pH 7.4 using [35S]GTP-gamma-S as radioligand. In general terms: GTPγS resists hydrolysis and so accumulates on activated G proteins.
Test [3] concerns the target Sphingosine 1-phosphate receptor 3 (Homo sapiens, UniProt Q99500). Briefly: Agonism of human S1P-3 receptor expressed in CHO cells, 90-120 min in pH 7.4 using [35S]GTP-gamma-S as radioligand.
In test [4] the target is Sphingosine 1-phosphate receptor 5 (Homo sapiens, UniProt Q9H228). In words: Agonism of human S1P-5 receptor expressed in CHO cells, 90-120 min in pH 7.4 using [35S]GTP-gamma-S as radioligand.
Chain of Sphingosine 1-phosphate receptor 5 (Q9H228 whole entry): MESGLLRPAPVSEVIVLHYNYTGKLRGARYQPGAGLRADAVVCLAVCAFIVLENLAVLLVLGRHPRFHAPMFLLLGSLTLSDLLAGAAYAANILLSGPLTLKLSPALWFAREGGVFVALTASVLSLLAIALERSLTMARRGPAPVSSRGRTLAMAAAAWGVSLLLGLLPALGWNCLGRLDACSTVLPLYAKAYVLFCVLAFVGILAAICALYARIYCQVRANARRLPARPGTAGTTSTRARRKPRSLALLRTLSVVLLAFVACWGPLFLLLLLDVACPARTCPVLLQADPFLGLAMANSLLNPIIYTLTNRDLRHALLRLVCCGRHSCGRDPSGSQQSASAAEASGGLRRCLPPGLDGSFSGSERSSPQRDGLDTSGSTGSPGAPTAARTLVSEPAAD

Chain of Sphingosine 1-phosphate receptor 2 (O95136 whole entry): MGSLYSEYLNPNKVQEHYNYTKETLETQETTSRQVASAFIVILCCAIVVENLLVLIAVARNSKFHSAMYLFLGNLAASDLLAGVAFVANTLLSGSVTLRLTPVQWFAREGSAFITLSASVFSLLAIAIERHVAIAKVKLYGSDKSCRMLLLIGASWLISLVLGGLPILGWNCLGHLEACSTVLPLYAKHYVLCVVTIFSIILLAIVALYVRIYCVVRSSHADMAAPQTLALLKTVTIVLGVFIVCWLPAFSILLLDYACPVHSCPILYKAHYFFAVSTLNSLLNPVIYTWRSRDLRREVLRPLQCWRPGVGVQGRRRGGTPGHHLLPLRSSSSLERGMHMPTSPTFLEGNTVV
Chain of Sphingosine 1-phosphate receptor 3 (Q99500 whole entry): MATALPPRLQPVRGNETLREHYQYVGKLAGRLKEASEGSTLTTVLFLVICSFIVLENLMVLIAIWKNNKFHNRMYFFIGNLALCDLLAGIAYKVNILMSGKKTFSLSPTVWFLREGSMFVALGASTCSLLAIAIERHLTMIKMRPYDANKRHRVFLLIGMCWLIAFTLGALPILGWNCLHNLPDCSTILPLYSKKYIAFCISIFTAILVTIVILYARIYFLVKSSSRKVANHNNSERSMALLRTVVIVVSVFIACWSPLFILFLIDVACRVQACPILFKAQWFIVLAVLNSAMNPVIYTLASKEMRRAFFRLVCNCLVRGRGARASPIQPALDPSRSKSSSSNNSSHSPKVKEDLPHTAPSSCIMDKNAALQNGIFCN

As to `CCCCCCCCc1ccc(CC[C@](N)(CO)COP(=O)(O)O)cc1` [FTY720-P], the pEC50 in test [1] was 9.22.
Same read-out and setting: the result for `CCCCCCCCc1ccc(CC[C@@](N)(CO)COP(=O)(O)O)cc1` reads 7.10; that for `CCCCCCCCc1ccc(CCC(N)(CO)COP(=O)(O)O)cc1` (racemic), 8.62.
As for `CCCCCCCCc1ccc(CCC(N)(CO)CO)cc1` [FINGOLIMOD], the pEC50 in test [2], in test [3], in test [1] and in test [4] was less than 5.00 in each case.
